Test results: ChEMBL document CHEMBL1136363, “Rational approaches towards reversible inhibition of type B monoamine oxidase. Design and evaluation of a novel 5H-Indeno[1,2-c]pyridazin-5-one derivative” (Bioorg Med Chem Lett, 2003)
pKi: −log10 of the molar value.

Molecular target: T1, Amine oxidase [flavin-containing] A (Homo sapiens, UniProt P21397)
T1 sequence (P21397 whole entry): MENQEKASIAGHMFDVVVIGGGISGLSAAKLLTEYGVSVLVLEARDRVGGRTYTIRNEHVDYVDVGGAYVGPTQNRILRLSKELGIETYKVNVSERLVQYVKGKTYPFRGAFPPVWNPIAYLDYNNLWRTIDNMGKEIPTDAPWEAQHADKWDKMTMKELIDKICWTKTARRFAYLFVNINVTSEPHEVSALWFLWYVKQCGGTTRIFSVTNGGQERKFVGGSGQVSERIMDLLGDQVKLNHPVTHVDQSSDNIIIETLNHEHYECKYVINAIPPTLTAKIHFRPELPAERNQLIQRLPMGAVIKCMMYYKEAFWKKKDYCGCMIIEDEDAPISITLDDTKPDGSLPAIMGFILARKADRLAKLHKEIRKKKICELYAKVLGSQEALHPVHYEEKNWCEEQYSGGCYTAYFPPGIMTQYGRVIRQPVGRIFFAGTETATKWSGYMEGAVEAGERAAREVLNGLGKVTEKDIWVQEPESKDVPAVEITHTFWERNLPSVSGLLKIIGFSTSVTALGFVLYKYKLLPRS
Test: Inhibitory concentration against Monoamine oxidase A in human placenta.

With Cc1cc2c(nn1)-c1cc(OCCCC(F)(F)F)ccc1C2=O the pKi was ~4.00.
